In patent US7081457B2 (Wyeth, priority 1999, dated 2006):

Tests used:
alkaline phosphatase = assay: cells; details: read-out: EC50 (alkaline phosphatase data, printed in HPR CV-1 column)
ovulation = assay: Ovulation Inhibition; details: in vivo

| Compound | melting point [°C] | EC50 (alkaline phosphatase) [nM] | Ovulation Inhibition ED100 (ovulation) [mg/kg] |
| --- | --- | --- | --- |
| CC1(C)OC(=S)Nc2ccc(-c3cccc(C#N)c3)cc21 [Compound 4, 3-(4,4-Dimethyl-2-thioxo-1,4-dihydro-2H-benzo[d][1,3]oxazin-6-yl)-benzonitrile] | 236 to 237 | 0.4 | – |
| CC1(C)OC(=S)Nc2ccc(-c3csc(C#N)c3)cc21 [Compound 2, 4-(4,4-Dimethyl-2-thioxo-1,4-dihydro-2H1-benzo [d][1,3]oxazin-6-yl)-thiophene-2-carbonitrile] | – | – | 1 |
| CC1(C)OC(=S)Nc2ccc(-c3cc(C#N)ccc3F)cc21 [Example 47, 3-(4,4-Dimethyl-2-thioxo-1,4-dihydro-2H-3,1-benzoxazin-6-yl)-4-fluorobenzonitrile] | 250 to 251 | – | – |
| Cc1cc(C#N)sc1-c1ccc2c(c1)C(C)(C)OC(=S)N2 [Example 16, 5-(4,4-Dimethyl-2-thioxo-1,4-dihydro-2H-3,1-benzoxazin-6-yl)-4-methylthiophene-2-carbonitrile] | 211 to 212 | – | – |

Now from value to compound, other results behind:

| melting point [°C] | Compound | EC50 (alkaline phosphatase) [nM] | Ovulation Inhibition ED100 (ovulation) [mg/kg] |
| --- | --- | --- | --- |
| 204 to 206 | CC1(C)OC(=S)Nc2ccc(-c3cc(F)cc(C(F)(F)F)c3)cc21 [Example 43, 6-[3-Fluoro-5-(trifluoromethyl)phenyl]-4,4-dimethyl-1,4-dihydro-2H-3,1-benzoxazine-2-thione] | – | – |
| 204 to 205 | CC1(C)OC(=S)Nc2ccc(-c3cc(F)cc(Cl)c3)cc21 [Example 27, 6-(3-Chloro-5-fluorophenyl)-4,4-dimethyl-1,4-dihydro-2H-3,1-benzoxazine-2-thione] | – | – |
